The values that follow come from patent US10166211B1, “Nitric oxide releasing compound, pharmaceutical composition, use and synthesis method thereof” (NATIONAL CHIAO TUNG UNIVERSITY, priority 2017, dated 2019).

In assay [1] the test system is EAHY926 cells. Description: Wound healing assay (in vitro scratch). The conditions noted are these: EAHY926, 7.8 μM, 1 mm wide line, 24th hour, FIGS. 9A-9I. It is filed as cell-based, human. Here is the method: (§1) In the present disclosure, the cell line for the cell experiment is EAHY926 (human vascular endothelial cell line), and the mouse strain for the animal experiment is BALB/c Nude mouse.
EAHY926 cells were seeded in cell culture plates at 37° C. […] A 1 millimeter (mm) wide line was scraped off in a culture plate, and images of the culture were taken within the first hour and the 24th hour to record and quantify the percentage of wound healing.

Assay [2] deals with EAHY926 cells. As to the kind of experiment: Cell viability (MTT) of the cell cultures of the wound healing test. The assay is classed as cell-based, human. The conditions noted are these: EAHY926, 7.8 μM, FIG. 11. An excerpt:
(§2) In this experiment, 3-(4,5-cimethylthiazol-2-yl)-2,5-diphenyl tetrazolium bromide (also called MTT) was used for testing cell viability. MTT is a yellow compound and a dye that accepts hydrogen ions and acts on the respiratory chain of living cell mitochondria. Under the action of succinate dehydrogenase (SDH) and cytochrome C, the tetrazolium ring of MTT will be cracked to generate blue color crystals. The formation of crystals is proportional to the number of living cells (in dead cells, because there is no active succinate dehydrogenase, MTT cannot be reduced). The O.D value can indirectly represent cell viability because of the MTT reduction ability of living cells.
In the present experimental example, then the cell viability was assayed by adding MTT reagent to the various cell cultures of wound healing test. The results are shown in FIG. 11, among all of the groups, the group treated with RRE-1 had the highest cell viability. The result corresponds to the result of FIG. 4. In FIG. 11, the effects of cell viability were ranked as RRE-1>DPTA>MAHMA. The trend is similar to the result of FIG. 10.

For assay [3], the system named is EAHY926 cells. As to the kind of experiment: Cell development index assay (Angiogenesis Analyzer for ImageJ). The conditions noted are these: EAHY926, 7.8 μM, 24th hour; for numbers of endothelial junctions (rank of effects): FIG. 7A; for numbers of endothelial meshes (rank of effects): FIG. 7B; for total branching lengths (rank of effects): FIG. 7C. It is filed as cell-based, human. Here is the method: as §1
EAHY926 cells were seeded in cell culture plates at 37° C. […] Microscopic images were taken within the first hour and the 24th hour after the addition of nitric oxide releasing agents, and the images were analyzed by “Angiogenesis Analyzer for ImageJ” software for analyzing cell development index. The analyzed cell development parameters include cell meshes, cell junctions and cell branches.
Please refer to FIGS. 5A to 5H and FIGS. 6A to 6H. In the analysis of cell development, the gray lines were represented as cell branches of the cell-cell junction, and the more lines mean more growth of the cells. In addition, when the cells were more developed because they had more cell branches, the cells were represented by white lines. As the degree of cell development increased, cell junctions (dark gray dots) became more. Further, the cells enclosed multiple circles (black lines) which were called cell meshes.

The next assay has as its system TIE-2. Description: Western blot assay, TIE-2 expression. The conditions noted are these: EAHY926, 7.8 μM, 24 hours, FIG. 12. The assay is classed as cell-based, human. How it is done: (§3) In the literature, nitric oxide releasing agents have the potential for promoting angiogenesis and wound healing in vivo, and are also clinically useful agents that can effectively promote the expression of vascular endothelial growth factor receptor 2 (VEGFR2). Therefore, this experiment intended to test the effect of the respective various nitric oxide releasing agents on the expression of angiogenesis-related proteins (e.g., TIE-2, and VEGFR-2).
(§4) EAHY926 cells were seeded in cell culture dishes at 37° C. […] After 24 hours incubation, the cultures were washed with PBS three times and added 250 microliters (μL) of cell lysis buffer, then the cells were scraped and the proteins of the cells were extracted for Western blot experiment.
Background: In western blotting, separated proteins are transferred to a membrane and probed.

A further assay relates to VEGFR-2. Description: Western blot assay, VEGFR-2 expression. It is filed as cell-based, human. The conditions noted are these: EAHY926, 7.8 μM, 24 hours, FIG. 12. How it is done: as §3, §4
For assay [4], the system named is zebrafish with fluorescence gene Tg (fli1: EGFP) y1. Description: In vivo angiogenesis assay in zebrafish. To be noted: 7.8 μM. Here is the method: In this experiment, zebrafish with fluorescence gene Tg (fli1: EGFP) y1 were used for in vivo angiogenesis analysis. The zebrafish nutrient solutions were respectively added with the respective various nitric oxide releasing agents at 7.8 μM concentration. The zebrafish were incubated with nitric oxide releasing agents for 24 to 48 hours. The confocal microscopy images were taken at the beginning, the 24th hour, and the 48th hour after incubation, and semi-quantitative analysis of neovascularization in zebrafish oocysts was performed.
FIGS. 14A to 14E show images taken within the first hour after addition of the nitric oxide releasing agents. FIGS. 15A to 15E are images taken within the 24th hour after addition of the nitric oxide releasing agents. FIGS. 16A to 16E are images taken within the 48th hour after addition of nitric oxide releasing agents. Neovascularization in the zebrafish oocyst area is indicated by the white arrows.

The test system of a further assay is chicken embryos. Description: Chicken chorioallantoic membrane assay (CAM). It is filed as in vivo. To be noted: 7.8 μM injected into eggs after 6 days incubation, 2 days of culture, FIG. 20. Here is the method: In this experimental example, the insemination eggs were placed on the egg rack and the eggs' gas chamber were placed upwards in the hatching incubator. After incubation for 6 days, the eggs were screened with an egg detector, and the insemination eggs with hatching embryos were selected. Then, small holes were respectively drilled on the air chamber end (blunt end) and a side of the selected eggs, and 7.8 μM of the respective various nitric oxide releasing agents were injected through the small holes at the blunt end, sterilized filter films were covered on the hole of the air chamber, and then ventilation tapes were put on. The eggs were continuously incubated in the incubator. After 2 days of culture, the eggs were poked and placed in Petri dishes to observe and recorded by a camera.
The condition of the control group was the eggs with no addition of nitric oxide releasing agents.

The subject of assay [5] is Immunodeficient nude mice. As to the kind of experiment: In vivo angiogenesis assay (DIVAA) in mice. Further details: species or system mouse. To be noted: soft tubes implanted in the back, 7.8 μM, twenty days, FIG. 13.
Text: as §1
Immunodeficient nude mice (6 in each group) were fixed on the operating table and anesthetized (1-3% isoflurane/100% oxygen, flow rate 1 L/min). After the mice were fixed, two 1 cm incisions were respectfully cut on the left and right back of the mice with a surgical knife. Soft tubes containing mixtures of cell nutrient agents and 7.8 μM of respective nitric oxide releasing agents were prepared. These soft tubes were implanted into the back of the mice, then the wounds were washed with normal saline and were stitched. After 20 days, the soft tubes were removed and the hemoglobins within the soft tubes were released. The total amounts of hemoglobin were analyzed by ELISA analyzer for obtaining the correlation parameters of angiogenesis.
The control group was the conditioned of the soft tube without nitric oxide releasing agents.

Assay [6] has as its system EAHY926 cells. As to the kind of experiment: Cell viability assay (MTT). To be noted: EAHY926, 24 hours, 37° C., at various concentrations, FIG. 4. It is filed as cell-based, human.
Text: as §1, §2

“1-(hydroxy-NNO-azoxy)-L-proline, disodium salt”: the “effect on wound healing (images)” value with EAHY926 cells [1] is recorded as “more significant effects on wound healing”.

Turning to `NCCCN(CCCN)/[N+]([O-])=N/O` [DPTA, (Z)-1-[N-(3-aminopropyl)-N-(3-ammoniopropyl)amino]diazen-1-ium-1,2-diolate], in the assay with EAHY926 cells [2], the “cell viability (MTT) after wound healing test” value is listed as “RRE-1>DPTA>MAHMA”. Further, the “effect on wound healing (images)” value in the assay with EAHY926 cells [1] is “more significant effects on wound healing”.

Regarding `CNCCCCCCN(C)/[N+]([O-])=N/O` [MAHMA, (Z)-1-[N-Methyl-N-[6-(N-methylammoniohexyl)amino]]diazen-1-ium-1,2-diolate], the “cell viability (MTT) after wound healing test” value in the assay with EAHY926 cells [2] is “RRE-1>DPTA>MAHMA”. Moreover, in the assay on EAHY926 cells [3], the “numbers of endothelial junctions (rank of effects)” value (“numbers of endothelial junctions” below) was “RRE-1>VEGF>Spermine>MAHA”, the “numbers of endothelial meshes (rank of effects)” value (“numbers of endothelial meshes” below) is listed as “RRE-1>VEGF>MAHMA>Spermine” and the “total branching lengths (rank of effects)” value (“total branching lengths” for short) is reported as “RRE-1>Spermine>VEGF>MAHMA”. For the same compound, the “expression of protein TIE-2 (Western blot)” value with TIE-2 is on record as “only induced a small amount”. The “expression of protein VEGFR-2 (Western blot)” value in the assay with VEGFR-2 was “only induced a small amount”. In assay [4] (24 hours, FIG. 17), the “angiogenesis (neovascularization in zebrafish oocyst area)” value is “most effective”.

Consider `NCCCNCCCCNCCCN` [Spermine], for which, in the assay on chicken embryos, the “angiogenesis of chicken embryos (CAM)” value is “similar”. Besides, in the assay on EAHY926 cells [3], the “numbers of endothelial junctions” value is listed as “RRE-1>VEGF>Spermine>MAHA”, the “numbers of endothelial meshes” value is “RRE-1>VEGF>MAHMA>Spermine” and the “total branching lengths” value is recorded as “RRE-1>Spermine>VEGF>MAHMA”. Further, the “expression of protein TIE-2 (Western blot)” value with TIE-2 is listed as “only induced a small amount”. The “expression of protein VEGFR-2 (Western blot)” value in the assay with VEGFR-2 is reported as “only induced a small amount”. Besides, the “angiogenesis inside the soft tubes (total amounts of hemoglobin)” value in assay [5] is “followed by VEGF and Spermine”. For the same compound, the “effect on wound healing (images)” value in the assay on EAHY926 cells [1] was “more significant effects on wound healing”.

For the compound VEGF, in the assay with EAHY926 cells [3], the “numbers of endothelial junctions” value was “RRE-1>VEGF>Spermine>MAHA”, the “numbers of endothelial meshes” value was “RRE-1>VEGF>MAHMA>Spermine” and the “total branching lengths” value is “RRE-1>Spermine>VEGF>MAHMA”. The “expression of protein TIE-2 (Western blot)” value in the assay with TIE-2 is given as “only induced a small amount”. Further, the “expression of protein VEGFR-2 (Western blot)” value in the assay with VEGFR-2 is given as “only induced a small amount”. For the same compound, in [5], the “angiogenesis inside the soft tubes (total amounts of hemoglobin)” value is “followed by VEGF and Spermine”. The “effect on wound healing (images)” value in the assay on EAHY926 cells [1] was “more significant effects on wound healing”. The “angiogenesis (neovascularization in zebrafish), overall statement” value in assay [4] (24 to 48 hours) was “not effective as expected”. The “promotion of cell growth (cell viability, MTT)” value in the assay with EAHY926 cells [6] is listed as “does not work better than other commercially available nitric oxide-releasing agents”.
